The results in this text go back to US6316503A, “LXR modulators” (Tularik Inc., priority 2000, dated 2001).

Experiment [1] deals with T1, LXRα (Homo sapiens, UniProt Q13133).
T1 construct: expressed in transfected cells; host or cells: 293 cells
T1 sequence (Q13133 209-447 limits assumed): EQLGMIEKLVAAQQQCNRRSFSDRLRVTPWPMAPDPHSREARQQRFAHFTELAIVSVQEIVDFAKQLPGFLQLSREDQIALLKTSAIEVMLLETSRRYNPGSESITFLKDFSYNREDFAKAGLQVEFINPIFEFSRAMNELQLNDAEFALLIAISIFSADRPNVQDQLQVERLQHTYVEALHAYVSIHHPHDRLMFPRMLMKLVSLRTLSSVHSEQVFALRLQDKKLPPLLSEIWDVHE
Description: cell-based GAL4-LXRα luciferase reporter assay. Particulars: 293 cells with GAL4 DNA-binding domain fused to LXRα ligand-binding domain, UAS luciferase reporter; concentration producing 50% of maximal luciferase activity. The source says:
(§1) LXRα agonist activity can be characterized in a cell-based assay or a peptide-sensor assay. The same assays can be utilized to characterize LXRα antagonist activity, by evaluating the ability of a compound to block the effects of an LXRα agonist, such as 24,25-epoxycholesterol.
Briefly, for the cell-based assay, a DNA-binding domain of the nonreceptor transcription factor GAL4 was fused to the putative ligand-binding domain of LXRα. The resultant construct was introduced into 293 cells, together with UAS-containing luciferase reporter construct. The transfected cells were then treated with chemical libraries and luciferase activity was measured. Individual compounds were evaluated relative to a control (no addition of compound) and the EC50 was determined as the concentration necessary to produce 50% of the maximal luciferase activity.

Experiment [2] concerns the target T2, LXRα (Homo sapiens, UniProt Q13133).
T2 sequence (Q13133 1-447): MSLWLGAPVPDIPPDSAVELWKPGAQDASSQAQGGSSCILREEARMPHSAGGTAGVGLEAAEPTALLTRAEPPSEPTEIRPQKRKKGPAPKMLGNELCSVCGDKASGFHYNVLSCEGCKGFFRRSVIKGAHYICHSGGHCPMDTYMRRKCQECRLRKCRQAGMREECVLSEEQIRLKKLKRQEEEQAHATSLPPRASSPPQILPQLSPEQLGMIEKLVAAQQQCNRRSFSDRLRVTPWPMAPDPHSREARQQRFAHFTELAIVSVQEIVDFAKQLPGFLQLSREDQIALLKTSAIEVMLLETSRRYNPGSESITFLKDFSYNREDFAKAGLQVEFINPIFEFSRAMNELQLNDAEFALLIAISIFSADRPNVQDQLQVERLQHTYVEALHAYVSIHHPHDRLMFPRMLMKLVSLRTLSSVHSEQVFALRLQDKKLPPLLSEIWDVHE
In words: peptide sensor LXR assay (in vitro). It counts as biochemical. The procedure:
as §1
The peptide sensor LXR assay is an in vitro assay and was conducted as generally described in co-pending applications Ser. Nos. 08/975,614 (filed Nov. 21, 1997) and 09/163,713 (filed Sep. 30, 1998).

pEC50: −log10 of the molar value.

Usually pEC50 stands for the negative decadic logarithm of the EC50, by convention in mol/L. For `O=S(=O)(Nc1ccc(C(O)(C(F)(F)F)C(F)(F)F)cc1)c1ccccc1` [Compound 2], the pEC50 on LXRα [1] and on LXRα [2] was more than 5.70 each time.
